From ChEMBL document CHEMBL4417631, “Oral peptide inhibitors of interleukin-23 receptor and their use to treat inflammatory bowel diseases” (2017)
Where a SMILES comes first, the peptide text is derived from it.

What follows are molecules tested against T1, Interleukin-23 receptor (Homo sapiens, UniProt Q5VWK5) (assay: Inhibition of interleukin-23 binding to human interleukin-23 receptor incubated for 2 hrs by competitive binding ELISA).
T1 sequence (Q5VWK5 whole entry): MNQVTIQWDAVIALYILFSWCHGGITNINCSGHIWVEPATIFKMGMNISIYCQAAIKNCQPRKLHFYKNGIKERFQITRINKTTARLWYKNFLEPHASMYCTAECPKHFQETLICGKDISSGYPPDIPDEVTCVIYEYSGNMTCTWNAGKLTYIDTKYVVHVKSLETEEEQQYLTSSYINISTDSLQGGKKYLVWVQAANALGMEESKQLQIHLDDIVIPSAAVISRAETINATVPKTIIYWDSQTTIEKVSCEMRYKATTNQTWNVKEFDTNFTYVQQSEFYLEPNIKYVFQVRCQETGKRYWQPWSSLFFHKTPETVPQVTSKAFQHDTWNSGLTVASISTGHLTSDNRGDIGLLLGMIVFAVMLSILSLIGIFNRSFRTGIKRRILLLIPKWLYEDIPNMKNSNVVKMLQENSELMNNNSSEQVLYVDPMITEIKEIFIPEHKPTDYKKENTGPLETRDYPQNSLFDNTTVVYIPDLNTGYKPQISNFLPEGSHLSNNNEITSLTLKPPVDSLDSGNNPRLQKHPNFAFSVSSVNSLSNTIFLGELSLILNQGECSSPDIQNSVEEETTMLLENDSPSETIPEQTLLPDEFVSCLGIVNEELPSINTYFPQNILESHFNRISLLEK

SMILES | IC50 [nM]
CCCCCCCCCCCCCCCC(=O)NCCCC[C@H](NC(=O)[C@H](Cc1c[nH]c2ccccc12)NC(=O)[C@@H](NC(=O)[C@H](CCC(N)=O)NC(=O)[C@H](CS)NC(C)=O)[C@@H](C)O)C(=O)N[C@@H](CS)C(=O)N[C@@H](Cc1ccc(O)cc1)C(=O)N[C@@H](Cc1c[nH]c2ccccc12)C(=O)N[C@@H](CC(C)C)C(=O)N[C@@H](CCC(=O)O)C(=O)N[C@@H](CC(N)=O)C(=O)NCC(N)=O | 30000
CC(=O)N[C@@H](CS)C(=O)N[C@@H](CCC(N)=O)C(=O)N[C@H](C(=O)N[C@@H](Cc1c[nH]c2ccccc12)C(=O)N[C@@H](CCC(N)=O)C(=O)N[C@@H](CS)C(=O)N[C@@H](Cc1ccc(O)cc1)C(=O)N[C@@H](Cc1c[nH]c2ccccc12)C(=O)N[C@@H](CCCNC(=N)N)C(=O)N[C@H](CCC(=O)O)C(=O)N[C@@H](CC(N)=O)C(=O)NCC(=O)NCCOCC(=O)N[C@H](CCCCN)C(N)=O)[C@@H](C)O | > 1000
CC(=O)N[C@@H](CS)C(=O)N[C@@H](CCC(N)=O)C(=O)N[C@H](C(=O)N[C@@H](Cc1c[nH]c2ccccc12)C(=O)N[C@H](C(=O)N[C@@H](CS)C(=O)N[C@@H](Cc1ccc(O)cc1)C(=O)N[C@@H](Cc1c[nH]c2ccccc12)C(=O)N[C@@H](CCCNC(=N)N)C(=O)N[C@@H](CCC(=O)O)C(=O)N[C@@H](CC(N)=O)C(=O)NCC(=O)NCCOCC(=O)N[C@H](CCCCN)C(N)=O)C(C)C)[C@@H](C)O | < 500
CC(=O)N[C@@H](CS)C(=O)N[C@@H](CCC(N)=O)C(=O)N[C@H](C(=O)N[C@@H](Cc1c[nH]c2ccccc12)C(=O)N[C@@H](CCC(N)=O)C(=O)N[C@@H](CS)C(=O)N[C@@H](Cc1ccc(O)cc1)C(=O)N[C@@H](Cc1c[nH]c2ccccc12)C(=O)N[C@@H](CCCNC(=N)N)C(=O)N[C@@H](CCC(=O)O)C(=O)N[C@@H](CC(N)=O)C(=O)NCC(=O)NCCOCC(=O)N[C@H](CCCNC(=N)N)C(N)=O)[C@@H](C)O | < 500
CC(=O)NCC(=O)NCC(=O)N[C@H](C(=O)N[C@@H](CCC(=O)O)C(=O)N[C@@H](CS)C(=O)N[C@@H](CC(N)=O)C(=O)N[C@@H](CC(=O)O)C(=O)N[C@@H](Cc1c[nH]c2ccccc12)C(=O)N[C@@H](CCC(N)=O)C(=O)N[C@@H](CS)C(=O)N[C@@H](Cc1ccc(O)cc1)C(=O)N[C@@H](Cc1c[nH]c2ccccc12)C(=O)N[C@@H](Cc1cnc[nH]1)C(=O)N[C@H](C(=O)N[C@@H](Cc1ccccc1)C(=O)NCC(N)=O)[C@@H](C)O)C(C)C (Ac-GGVECNDWQCYWHTFG-NH2) | 500 to 1000
CC(=O)N[C@@H](CS)C(=O)N[C@@H](CCC(N)=O)C(=O)N[C@H](C(=O)N[C@@H](Cc1c[nH]c2ccccc12)C(=O)N[C@@H](CCC(N)=O)C(=O)N[C@@H](CS)C(=O)N[C@H](C(=O)N[C@@H](Cc1c[nH]c2ccccc12)C(=O)N[C@@H](CCC(C)C)C(=O)N[C@@H](CCC(=O)O)C(=O)N[C@@H](CC(N)=O)C(=O)NCC(N)=O)[C@@H](C)O)[C@@H](C)O | > 30000
CC(=O)N[C@@H](CS)C(=O)N[C@@H](C)C(=O)N[C@@H](CC(=O)O)C(=O)N[C@@H](Cc1c[nH]c2ccccc12)C(=O)N[C@H](C(=O)N[C@@H](CS)C(=O)N[C@@H](Cc1ccc(O)cc1)C(=O)N[C@@H](Cc1cccc2ccccc12)C(=O)N[C@@H](Cc1cnc[nH]1)C(=O)NCCC(=O)N[C@@H](Cc1ccccc1)C(=O)NCC(N)=O)C(C)C | > 1000
CC(=O)N[C@@H](CS)C(=O)N[C@@H](CCC(N)=O)C(=O)N[C@H](C(=O)N[C@@H](Cc1c[nH]c2ccccc12)C(=O)N[C@@H](CCC(N)=O)C(=O)N[C@@H](CS)C(=O)N[C@@H](Cc1ccc(O)cc1)C(=O)N[C@@H](Cc1c[nH]c2ccccc12)C(=O)N[C@@H](CCC(C)C)C(=O)N[C@@H](CCC(=O)O)C(=O)N[C@@H](CC(N)=O)C(=O)NCC(=O)N1CCC[C@H]1C(N)=O)[C@@H](C)O | 97 to 239
CC(=O)N[C@@H](CS)C(=O)N[C@@H](C)C(=O)N[C@@H](CC(=O)O)C(=O)N[C@@H](Cc1c[nH]c2ccccc12)C(=O)N[C@H](C(=O)N[C@@H](CS)C(=O)N[C@@H](Cc1ccc(O)cc1)C(=O)N[C@@H](Cc1c[nH]c2ccccc12)C(=O)N[C@@H](Cc1cnc[nH]1)C(=O)N[C@H](C(=O)N[C@@H](Cc1ccccc1)C(=O)NCC(=O)N1CC[C@H]1C(=O)N[C@H](CCCCN)C(=O)O)[C@@H](C)O)C(C)C | < 500
